pIC50: −log10 of the molar value. “Also recorded” adds a separate entry of the source. Counter-ions that a name gives are not always drawn.
Key:
[1] = Protein binding across species; type: in vitro ADME
[2] = Effect of food on oral bioavailability in rats; type: in vivo, rat
Procedure: The effect of food on oral bioavailability was determined.

[3] = Rat brain distribution and pharmacokinetic study; type: in vivo
From the text: A rat brain distribution study performed in order to determine standard pharmacokinetic parameters and to assess the brain penetration properties of Compound 1 administered orally and intravenously.

[4] = Dog 7-day repeat dose PO study; type: in vivo; details: plasma, N = 1
Procedure: The objective was to develop a preliminary toxicity profile of Compound 1 following daily oral (gavage) administration for 7 days to male and female dogs to support dose selection for a 28-day toxicity study in dogs. Doses were selected based on the results of the MTD phase. Dose levels were 0 (Vehicle Control), 200, 350 and 400 mg/kg (1 dog/sex/group). The vehicle was 0.5% aqueous HPMC.
The animals used in this study were returned to the holding colony

BCRP = BCRP (Homo sapiens, UniProt Q9UNQ0); experiment: Inhibition of efflux (ABC) transporters
Chain of BCRP (Q9UNQ0 whole entry): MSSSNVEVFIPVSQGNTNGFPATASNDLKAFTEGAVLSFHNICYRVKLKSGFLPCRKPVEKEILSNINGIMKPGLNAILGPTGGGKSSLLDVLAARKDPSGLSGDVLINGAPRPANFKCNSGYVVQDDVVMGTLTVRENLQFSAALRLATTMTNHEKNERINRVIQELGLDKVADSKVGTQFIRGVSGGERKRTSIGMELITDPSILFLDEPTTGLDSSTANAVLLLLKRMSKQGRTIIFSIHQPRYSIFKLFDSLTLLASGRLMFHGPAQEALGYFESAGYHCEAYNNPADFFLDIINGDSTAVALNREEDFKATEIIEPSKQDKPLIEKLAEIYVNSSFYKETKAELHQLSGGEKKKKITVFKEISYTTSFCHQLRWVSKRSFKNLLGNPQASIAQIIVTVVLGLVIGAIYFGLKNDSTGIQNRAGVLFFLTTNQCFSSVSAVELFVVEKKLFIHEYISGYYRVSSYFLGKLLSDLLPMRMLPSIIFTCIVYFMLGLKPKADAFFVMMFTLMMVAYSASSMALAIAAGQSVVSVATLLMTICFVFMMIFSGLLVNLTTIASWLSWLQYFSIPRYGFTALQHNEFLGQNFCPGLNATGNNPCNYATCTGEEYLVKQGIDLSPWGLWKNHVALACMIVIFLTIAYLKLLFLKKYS

[5] = system: established incision-induced mechanical hyperalgesia; experiment: Brennan incisional pain model, treatment paradigm; type: in vivo, rat
From the text: Two incisional pain models were used to assess Compound 1 effects on hyperalgesia. The first model is referred to as the Brennan model in which, under anesthesia, a 1 cm longitudinal incision to the skin and underlying fascia of a rat hindpaw is made. The second is a variation but is a more invasive procedure in which the skin and muscle are spread apart using forceps which creates a longer-lasting hypersensitivity.
Using the Brennan protocol and a treatment paradigm in rat, Compound 1 (10 and 30 mg/kg PO), morphine (3 mg/kg SC) or vehicle were administered daily at 24 h post-incision, and again at 48 and 72 h post-incision. Mechanical thresholds were obtained at 1 h and 2 h post-dose in all cohorts on all days.

[6] = Log D distribution coefficient (PBS buffer/octanol); type: physicochemical
Procedure: Compound 1 has a Log D distribution coefficient at pH 7.2 of −0.07 (3 mL PBS Buffer: 1 mL Octanol) and −0.39 (2 mL PBS Buffer: 2 mL Octanol), where PBS is phosphate buffer solution.

[7] = system: STZ-induced mechanical allodynia; experiment: Streptozotocin (STZ) diabetic neuropathy model; type: in vivo, mice; details: FIG. 14
Procedure: Streptozotocin (STZ) destroys insulin-producing cells and generates a diabetic phenotype in mice. Animals were dosed with STZ on day −7. By day 0, animals are hyperglycemic and hyperalgesic (day 0 BL).

[8] = Gravimetric Vapor Sorption (GVS); type: physicochemical
From the text: The sample is hygroscopic.

[9] = Solubility in organic/aqueous solvents; type: physicochemical
Procedure: Polymorphic screening of crystalline Compound 1 was performed using 15 organic/aqueous solvent systems, including: n-heptane, methanol, toluene, acetone, tetrahydrofuran, iso-propanol, ethanol, ethyl acetate, iso-propyl acetate, tert-butylmethyl ether, […], 10% water/90% tetrahydrofuran, tert-butyl alcohol, water, and 1:1 tert-butyl alcohol:water.

[10] = Metabolic stability in hepatocytes; type: in vitro ADME
From the text: Further metabolism work in additional species will be undertaken.

OATP1B1 = target: T1, OATP1B1 (Homo sapiens, UniProt Q9Y6L6); experiment: Inhibition of uptake (SLC) transporters; type: in vitro ADME
T1 construct: expressed in transfected cells; host or cells: HEK293 cells
T1 sequence (Q9Y6L6 whole entry): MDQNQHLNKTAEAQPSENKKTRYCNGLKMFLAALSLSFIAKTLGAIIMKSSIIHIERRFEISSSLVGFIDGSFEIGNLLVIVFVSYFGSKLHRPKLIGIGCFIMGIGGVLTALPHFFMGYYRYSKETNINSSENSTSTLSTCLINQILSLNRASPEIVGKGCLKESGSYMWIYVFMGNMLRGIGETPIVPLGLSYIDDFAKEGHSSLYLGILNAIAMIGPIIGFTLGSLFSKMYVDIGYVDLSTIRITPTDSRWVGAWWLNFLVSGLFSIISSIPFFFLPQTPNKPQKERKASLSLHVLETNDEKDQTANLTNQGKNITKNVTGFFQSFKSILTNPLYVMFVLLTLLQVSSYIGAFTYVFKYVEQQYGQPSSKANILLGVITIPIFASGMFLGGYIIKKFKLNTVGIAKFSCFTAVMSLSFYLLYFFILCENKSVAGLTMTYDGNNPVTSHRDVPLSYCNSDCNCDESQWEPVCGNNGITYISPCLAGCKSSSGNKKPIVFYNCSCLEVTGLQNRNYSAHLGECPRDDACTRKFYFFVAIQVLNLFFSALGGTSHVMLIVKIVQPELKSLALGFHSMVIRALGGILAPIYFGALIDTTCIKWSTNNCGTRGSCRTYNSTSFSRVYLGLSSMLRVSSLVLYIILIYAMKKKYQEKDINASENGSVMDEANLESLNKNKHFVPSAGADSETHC

[11] = female, 200 mg/kg, Day 1, 200 mg/kg PO, F
[12] = female, 200 mg/kg, Day 7, 200 mg/kg PO, F
[13] = female, 350 mg/kg, Day 1, 350 mg/kg PO, F
[14] = female, 350 mg/kg, Day 7, 350 mg/kg PO, F
[15] = female, 400 mg/kg, Day 1, 400 mg/kg PO, F
[16] = female, 400 mg/kg, Day 7, 400 mg/kg PO, F
[17] = male, 200 mg/kg, Day 1, 200 mg/kg PO, M
[18] = male, 200 mg/kg, Day 7, 200 mg/kg PO, M
[19] = male, 350 mg/kg, Day 1, 350 mg/kg PO, M
[20] = male, 350 mg/kg, Day 7, 350 mg/kg PO, M
[21] = male, 400 mg/kg, Day 1, 400 mg/kg PO, M
[22] = male, 400 mg/kg, Day 7, 400 mg/kg PO, M

## CC1(C)SC(Nc2ccccc2O)=N[C@@H]1C(=O)O [Compound 1, (R)-2-(2-hydroxyphenylamino)-5,5-dimethyl-4,5-dihydrothiazole-4-carboxylic acid mono-hydrochloride]
[1]
  protein binding: moderately protein-bound
[2]; 10 mg/kg
  peak plasma concentrations in fasted compared to fed rats: significantly increased
[2]; 100 mg/kg oral
  difference in pharmacokinetic properties fed vs fasted: No statistically significant differences
[2]; fed and fasted rats, 10 and 100 mg/kg
  oral absorption: well and rapidly absorbed
[3]; 30 mg/kg oral
  peak plasma concentration: 9 µg/mL
  time to peak plasma concentration: ≤ 1 h
[3]; rat, in vivo, 30 mg/kg oral dose
  bioavailability: 111%
[3]; rat, in vivo, 30 mg/kg oral dose, read-out: terminal half-life (converted)
  half-life: 1.6 h
[3]; rat, in vivo, 1 h after IV administration, read-out: brain-to-plasma concentration ratio
  Kp at 1 h: 0.02
[3]; rat, in vivo, mono-hydrochloride
  brain/tissue distribution: distributes to tissues but not to brain to an appreciable extent; also recorded: peripherally restricted
[4]; [11]
  AUC(0-t): 582 µg·h/mL
  Cmax: 152 µg/mL
  half-life: 1.3 h
[4]; [12]
  AUC(0-t): 411 µg·h/mL
  Cmax: 103 µg/mL
  half-life: 1.5 h
[4]; [13]
  AUC(0-t): 834 µg·h/mL
  Cmax: 228 µg/mL
  half-life: 1.2 h
[4]; [14]
  AUC(0-t): 738 µg·h/mL
  Cmax: 207 µg/mL
  Tmax: 0.5 h
  half-life: 2.4 h
[4]; [15]
  AUC(0-t): 464 µg·h/mL
  Cmax: 109 µg/mL
  Tmax: 1 h
[4]; [16]
  AUC(0-t): 751 µg·h/mL
  Cmax: 183 µg/mL
  half-life: 2.5 h
[4]; [17]
  AUC(0-t): 538 µg·h/mL
  Cmax: 150 µg/mL
  half-life: 1.1 h
[4]; [18]
  AUC(0-t): 540 µg·h/mL
  Tmax: 1 h
  half-life: 1.4 h
[4]; [19]
  AUC(0-t): 613 µg·h/mL
  Cmax: 176 µg/mL
  half-life: 1.1 h
[4]; [20]
  AUC(0-t): 591 µg·h/mL
  Cmax: 184 µg/mL
  Tmax: 1 h
  half-life: 1.2 h
[4]; [21]
  AUC(0-t): 657 µg·h/mL
  Cmax: 167 µg/mL
  half-life: 1.2 h
[4]; [22]
  AUC(0-t): 210 µg·h/mL
  Cmax: 69 µg/mL
  Tmax: 1 h
  half-life: 1.3 h
BCRP
  pIC50: < 4.52
BCRP; BCRP
  transporter inhibition: modestly inhibits
[5]; Compound 1 10 and 30 mg/kg PO daily, morphine 3 mg/kg SC, FIG. 12, mono-hydrochloride
  effect on established mechanical hyperalgesia (overall): prevented/reversed hyperalgesia completely; also recorded: reversed mechanical hyperalgesia
[5]; Day 1, 2-h time point, low-dose (10 mg/kg PO)
  reversal of hyperalgesia: partial reversal
[5]; Day 1, 1 h post-dose, high-dose (30 mg/kg PO)
  mechanical threshold: 26 g
[5]; Day 1, 2 h post-dose, high-dose (30 mg/kg PO)
  mechanical threshold: 27 g
[5]; Day 2, 1 h and 2 h post-dosing, both 10 and 30 mg/kg PO cohorts
  reversal of hyperalgesia: full reversal of hyperalgesia
[5]; Day 2 prior to dosing, high-dose (30 mg/kg PO)
  mechanical threshold: 29 g
[5]; Day 2 prior to dosing, low-dose (10 mg/kg PO)
  mechanical threshold: 26 g
[5]; Day 3 prior to dosing
  hyperalgesia: did not show hyperalgesia
[6]; pH 7.2, pH 7.2, 2 mL PBS Buffer: 2 mL Octanol
  logD: -0.39
[6]; pH 7.2, pH 7.2, 3 mL PBS Buffer: 1 mL Octanol
  logD: -0.07
[7]
  STZ-induced mechanical allodynia: blocks STZ-induced mechanical allodynia
[8]; GVS
  hygroscopicity: hygroscopic
[8]; between 0% and 90% RH
  GVS uptake: 6%
[9]; 10% water/tetrahydrofuran
  solubility: sparingly soluble
[9]; 10% water:iso-propyl acetate
  solubility: sparingly soluble
[9]; acetone
  solubility: less than sparingly soluble
[9]; ethanol
  solubility: sparingly soluble
[9]; ethyl acetate
  solubility: less than sparingly soluble
[9]; iso-propanol
  solubility: sparingly soluble
[9]; iso-propyl acetate
  solubility: less than sparingly soluble
[9]; methanol
  solubility: freely soluble
[9]; n-heptane
  solubility: less than sparingly soluble
[9]; tert-butyl alcohol
  solubility: less than sparingly soluble
[9]; tert-butyl alcohol:water (1:1)
  solubility: freely soluble
[9]; tert-butyl methyl ether
  solubility: less than sparingly soluble
[9]; tetrahydrofuran
  solubility: less than sparingly soluble
[9]; toluene
  solubility: less than sparingly soluble
[9]; water
  solubility: sparingly soluble
[10]; dog, mono-hydrochloride
  stability in hepatocytes: stable; also recorded: showed metabolic stability
[10]; human, mono-hydrochloride
  stability in hepatocytes: stable; also recorded: showed metabolic stability
[10]; monkey
  stability in hepatocytes: showed metabolic stability
[10]; rat, mono-hydrochloride
  stability in hepatocytes: stable; also recorded: showed metabolic stability
OATP1B1; HEK293 cells, probe [3H]-estradiol-17β-glucuronide (0.05 μM), 0.3-600 μM tested
  IC50: > 600 µM
OATP1B1; OATP1B1
  transporter inhibition: does not inhibit

— patent publication US20200246316A1, “METHODS OF TREATING POST-SURGICAL PAIN WITH A THIAZOLINE ANTI-HYPERALGESIC AGENT” (CERSCI THERAPEUTICS, INC., priority 2019, published 2020)
